Reference: PubChem BioAssay AID720547 (The Scripps Research Institute Molecular Screening Center, 2013)
“And” between values parts separate entries of the source, which are not always exact repeats. Equal entries are not always repeated. The source made the active and inactive calls.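 Rule for the calls: active = compound flagged as a likely artifact in this counterscreen, with IC50 of 10 µM or lower; inactive = IC50 above 10 µM.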

Test system: HEK293 Gal4-VP16 luciferase reporter counterscreen, luminescence
Test: Gal4-VP16 luciferase reporter inhibitors, dose response, counter-screen for COUP-TFII inhibitor project, cell-based, luminescence, HEK293 (AID 720547);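 note: potency for lowering the luciferase signal driven by Gal4-VP16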

| Compound | IC50 |
| --- | --- |
| Fc1ccc2[nH]c3c(N4CCc5ccccc5C4)ncnc3c2c1 | 77.5 µM (inactive) |
| CC1Cc2cc(-c3csc(NC(=O)Cc4ccccc4)n3)ccc2N1S(C)(=O)=O (stereo unspecified) | > 85.4 µM (inactive) |
| COc1cc2c(cc1OC)C1C(=O)c3ccc4c(c3OC1CO2)CC(C(C)C)O4 (stereo unspecified) | > 28.5 µM (inactive) |
| Cc1cc(N2CCN(c3nc4ccccc4s3)CC2)n2ncnc2n1 | > 85.4 µM (inactive) |
| Cc1nc2c(-c3ccc(Cl)cc3)cnn2c(N)c1-c1ccc(F)cc1 | > 85.4 µM (inactive) |
| C=CC[n+]1c(-c2ccc(Cl)cc2Cl)csc1Nc1c(C)n(C)n(-c2ccccc2)c1=O | > 85.4 µM (inactive) |
| CC(=O)c1ccc(N2CCN(C(=S)Nc3ccc(Oc4ccccc4)cc3)CC2)cc1 | > 85.4 µM (inactive) |
| CC1Cc2cc(-c3csc(NC(=O)Cc4cccs4)n3)ccc2N1S(C)(=O)=O (stereo unspecified) | 30.5 µM (inactive) |
| CC(=O)Nc1ccccc1OCC(=O)c1cc(C)n(Cc2cccs2)c1C | > 85.5 µM (inactive) |
| C=CCC1(CC=C)CCCN1C(=O)c1cc(COc2ccc(-n3cncn3)cc2)on1 | > 85.4 µM (inactive) |
| COc1ccc(CNC(=O)c2cccc3c(-c4cccnc4)coc23)cc1OC | 43.4 µM (inactive) |
| Cc1nn(C)c(C)c1CN(Cc1nc(CCC(C)C)no1)C(C)C | > 85.4 µM (inactive) |
| CCC(C)NC(=O)CCC(=O)OC1O[C@H]2OC3(C)CC[C@H]4[C@H](C)CCC(C1C)C24OO3 (stereo partly specified) | > 85.4 µM (inactive) |
| CCN(CC)C(=O)c1oc2ccc(S(=O)(=O)N3CC(C)CC(C)C3)cc2c1C (stereo unspecified) | 72.3 µM (inactive) |
| Cc1nn(C)c(C(=O)NCc2ccc(Cl)cc2)c1Cl | > 85.4 µM (inactive) |
| O=C(Nc1ccncc1)c1ccc(Cl)c(S(=O)(=O)N2CCc3ccccc32)c1 | 60.6 µM (inactive) |
| NC(=O)c1nnn(Cc2cc(Cl)c(C(=O)c3ccc(Cl)cc3)c(Cl)c2)c1N | > 85.4 µM (inactive) |
| COc1ccc(C2=Nn3c([n+](C)c4ccccc43)SC2)cc1 | > 85.4 µM (inactive) |
| Cc1ccc(-n2nc3c(=O)n(C(C)C(=O)NCCCc4ccccc4)nc(C)c3c2C)cc1 (stereo unspecified) | > 85.4 µM (inactive) |
| Cc1sc2ncnc(NCCc3ccc(S(N)(=O)=O)cc3)c2c1C | > 85.4 µM (inactive) |
| CCOC(=O)N1CCC(NC(=O)C2CCCN(Cc3nc(-c4ccc(CC)cc4)oc3C)C2)CC1 (stereo unspecified) | 80.1 µM (inactive) |
| COc1ccc(NC(=O)C2Cc3c(-c4ccc5c(c4)OCO5)ccnc3O2)cc1OC (stereo unspecified) | > 85.4 µM (inactive) |
| Cc1[nH]nc(C(F)(F)F)c1N=NN1CCOCC1 | 51.6 µM (inactive) |

| Compound | IC50 |
| --- | --- |
| NC(=O)c1ccsc1NC(=O)COC(=O)Cc1cccc2ccccc12 | > 85.4 µM (inactive) |
| CCOC(=O)c1c(C)[nH]c(C(=O)OCC(=O)Nc2sccc2C(N)=O)c1C | 29.8 µM (inactive) |
| C[n+]1c2n(c3ccccc31)N=C(c1ccc(-c3ccccc3)cc1)CS2 | > 28.5 µM (inactive) |
| O=C(c1cc(COc2cccc3cnccc23)on1)N1CCCC(CCCO)C1 (stereo unspecified) | > 85.4 µM (inactive) |
| Cc1c(Cl)cccc1NC(=O)N1CCCN(c2nc(-c3ccccc3)ns2)CC1 | > 85.4 µM (inactive) |
| COc1ccc(CNc2ncnc3ccccc23)cc1 | > 85.4 µM (inactive) |
| O=C(Cc1ccc(Cl)cc1Cl)Nc1ccncc1Cl | > 85.4 µM (inactive) |
| CC1CC(C)(O)CC(C(O)CC2CC(=O)NC(=O)C2)C1=O (stereo unspecified) | > 85.3 µM (inactive) |
| CCCc1cc(=O)n2nc(N3CCC(C(=O)N4CCN(c5ccc(OC)cc5)CC4)CC3)sc2n1 | > 85.4 µM (inactive) |
| CCNc1nc(-c2sc(NC(=O)C(C)(C)C)nc2C)c(-n2cc(-c3ccccc3)nn2)s1 | 21.1 µM (inactive) |
| C[n+]1c2n(c3ccccc31)N=C(c1ccccc1)CS2 | > 85.5 µM (inactive) |
| Cc1ccc(C(=O)NC2CCCc3c2cnn3-c2ccc(F)cc2F)cn1 (stereo unspecified) | > 85.4 µM (inactive) |
| C/C(=N\NC(N)=S)C1C2C3CC4C5CC(C42)C1C53 (stereo unspecified) | > 85.4 µM (inactive) |
| COCCn1c(C)c(C)c2c(NCCc3ccccc3)ncnc21 | > 85.3 µM (inactive) |
| O=C(/C=C/c1ccc([N+](=O)[O-])cc1)c1ccccc(=O)c1O | 13.2 µM (inactive) |
| COc1cc(N(C)C)ccc1C=c1c2ccccc2n2c1cc(-c1ccccc1)[n+]2C | 26.3 µM (inactive) |
| CC1=CC(=Cc2sc3ccccc3[n+]2C)C=C(C)O1 | 84.1 µM (inactive) |
| CCOc1cc(S(=O)(=O)NCc2ccncc2)ccc1Cl | > 85.4 µM (inactive) |
| O=C(CSc1nnc(Cn2nnc3ccccc32)o1)N(Cc1ccc(Cl)cc1)c1ccccc1 | > 85.4 µM (inactive) |
| COc1cc(NC(=O)COc2cc(O)c3c(c2)OC(C)(C)CC3=O)cc(OC)c1OC | > 28.5 µM (inactive) |
| O=C(Nc1ccc(Oc2ccccc2)cc1)c1csc([C@H]2C[C@H](O)[C@@H](CO)O2)n1 | > 85.4 µM (inactive) |
| Cc1ccc(F)cc1NC(=O)Cc1nn(C)c(=O)c2ccccc12 | > 85.4 µM (inactive) |
| N=c1c2c(n(Cc3ccc(Cl)cc3)c3c1CCC3)CCC2 | 89 µM (inactive) |

| Compound | IC50 |
| --- | --- |
| COc1ccc(NS(=O)(=O)c2ccc(-c3coc(C)n3)cc2)cc1OC | > 85.4 µM (inactive) |
| C=CCC1(CC=C)CCCN1C(=O)c1cc(COc2ccc(C)nc2)on1 | > 85.4 µM (inactive) |
| Cc1cccc2cc(-c3ccccc3)c(-c3ccccc3)c[n+]12 | > 85.4 µM (inactive) |
| CCCCOC(=O)c1[nH]c2c(c1C)C(=O)CC(c1cc(OC)c(OC)c(OC)c1)C2 (stereo unspecified) | > 85.4 µM (inactive) |
| Clc1ccc(OCCN2CCN(c3ncnc4sccc34)CC2)cc1 | > 85.5 µM (inactive) |
| CCOc1cccc(/C=N/NC(=S)Nc2ccccc2[N+](=O)[O-])c1O | 20.4 µM (inactive) |
| COc1ccc(N2CCN(c3ncnc4c3[nH]c3ccccc34)CC2)cc1 | > 85.4 µM (inactive) |
| Cc1nc2c(-c3ccccc3)cnn2c(N)c1-c1ccccc1 | 59.7 µM (inactive) |
| COc1ccccc1-n1c(-c2ccccc2)c[n+]2c1CCc1ccccc1-2 | > 85.4 µM (inactive) |
| CCC(C)C(NC(=O)CCCNC(=O)CCC(=O)OC1O[C@H]2OC3(C)CC[C@H]4[C@H](C)CCC(C1C)C24OO3)C(=O)O (stereo partly specified) | > 85.4 µM (inactive) |
| Cc1sc(NC(=O)CN2CCOCC2)nc1-c1ccc2c(c1)CCN2S(=O)(=O)c1ccccc1 | > 85.4 µM (inactive) |
| COc1ccc2c(c1)[nH]c1c(N3CCN(Cc4ccc5c(c4)OCO5)CC3)ncnc12 | 39.6 µM (inactive) |
| CCCCCCn1c2c(c(=N)c3c1CCC3)CCC2 | > 85.4 µM (inactive) |
| CC(C)CC(NC(=O)CCCNC(=O)CCC(=O)OC1O[C@H]2OC3(C)CC[C@H]4[C@H](C)CCC(C1C)C24OO3)C(=O)O (stereo partly specified) | > 85.4 µM (inactive) |
| Cc1cc(NC2CCCC2)n2ncc(-c3ccccc3)c2n1 | 62.9 µM (inactive) |
| CC(C)OCCCNc1ncnc2c1[nH]c1ccc(F)cc12 | > 85.4 µM (inactive) |
| COc1ccc(-n2nnnc2C(c2cc3ccccc3o2)N2CCC(n3c(=O)[nH]c4ccccc43)CC2)cc1 (stereo unspecified) | 12.7 µM (inactive) |
| COc1ccc(CCNC(=O)C(C)n2nc(C)c3c(C)n(-c4ccc(C)cc4)nc3c2=O)c(OC)c1 (stereo unspecified) | > 28.5 µM (inactive) |
| Cc1c(C(=O)N2CCN(Cc3ccc4c(c3)OCO4)CC2)sc2ncnc(N3CCN(c4ccccc4F)CC3)c12 | 62.7 µM (inactive) |
| CC[C@H]1CN2CCc3cc(OC)c(OC)cc3C2C[C@@H]1C[C@H]1NCCc2cc(OC)c(OC)cc21 (stereo partly specified) | > 85.4 µM (inactive) |
| S=C(NCCc1ccccc1)Nc1cccc2cnccc12 | > 85.4 µM (inactive) |
| CC(Nc1ncnc2ccccc12)c1ccccc1 (stereo unspecified) | > 85.5 µM (inactive) |
| Cn1c(=O)c2[nH]c(CCCCCCCCc3nc4ccccc4[nH]3)nc2n(C)c1=O | > 28.5 µM (inactive) |

| Compound | IC50 |
| --- | --- |
| Cc1nn(C)c(C)c1NC(=O)COc1ccc(Cl)cc1Br | > 85.4 µM (inactive) |
| CCCc1ccc(C(=O)O/N=C(\N)c2ccccn2)cc1 | 36.7 µM (inactive) |
| Oc1ccc(CCNc2ncnc3ccc(Cl)cc23)cc1 | > 85.4 µM (inactive) |
| Cn1nc(CC(=O)Nc2ccc3c(c2)OCCO3)c2ccccc2c1=O | > 85.4 µM (inactive) |
| Cc1ccc(S(=O)(=O)CC2CSc3nc4ccccc4n32)cc1 (stereo unspecified) | > 85.4 µM (inactive) |
| c1ccc(CNc2ncnc3ccccc23)cc1 | > 85.4 µM (inactive) and > 85.3 µM (inactive) |
| N#CC(C#N)=C(Nc1ccc(F)cc1)SCc1cccc(Br)c1 | > 85.4 µM (inactive) |
| O=S(=O)(NCC1CCCO1)c1ccc(-c2ccc(S(=O)(=O)NCC3CCCO3)cc2)cc1 (stereo unspecified) | > 85.4 µM (inactive) |
| Cc1ccc(S(=O)(=O)NCc2ccncc2)c(C)c1C | > 85.5 µM (inactive) |
| CC(C)(C)c1ccc(-c2nnc3sc(-c4ccccn4)nn23)cc1 | > 85.4 µM (inactive) |
| CC[C@@H](O)C[C@H]1CCC[C@@]2(C[C@@H]3OC(=O)/C=C/[C@@](C)(O)[C@@H](O)[C@H](C)[C@@H](O)[C@H](OC4CCC(N(C)C)C(C)O4)[C@@H](O)[C@](C)(O)CCCCC/C=C/[C@@H]4CC(C)(C)O[C@@]4(O)C[C@H](O2)[C@H]3C)O1 (stereo partly specified) | 37 µM (inactive) |
| Oc1ccc(-[n+]2c(-c3ccccc3)cc(-c3ccccc3)cc2-c2ccccc2)cc1 | 12.6 µM (inactive) |
| CCC1CCCCN1C(=O)c1cc(COc2ccc3ncccc3c2)on1 (stereo unspecified) | > 85.4 µM (inactive) |
| Clc1ccc(-n2ncc3c(NCCN4CCOCC4)ncnc32)cc1 | > 85.4 µM (inactive) |
| COc1ccc(NC(=O)COc2ccc(N(C)S(=O)(=O)c3ccc(Cl)cc3)cc2)cc1OC | > 85.4 µM (inactive) |
| Cc1nc2ccccc2n1Cc1ccc(Br)cc1 | > 85.3 µM (inactive) |
| Fc1ccc(CN2CCN(c3ncc(Cc4ccccc4)cn3)CC2)c(Cl)c1 | > 85.3 µM (inactive) |
| C[C@@H]1C[C@@H]([C@H](O)CC2CC(=O)NC(=O)C2)C(=O)[C@@H](C)C1 | > 85.4 µM (inactive) |
| COc1ccc(CN(C)c2ccc(S(=O)(=O)N3CCN(C)CC3)cc2[N+](=O)[O-])cc1OC | > 85.4 µM (inactive) |
| CC(=O)c1c(C)[nH]c(C(=O)COc2cc(C)ccc2C(C)C)c1C | > 85.4 µM (inactive) |
| COc1ccc(-c2ccc3oc(-c4ccc(OC)cc4)c(C#CCO)c3c2)cc1 | > 85.4 µM (inactive) |
| CCOCCCNC(=S)N1CCN(c2nc(-c3ccc(F)cc3)cs2)CC1 | 45.1 µM (inactive) |
